Test results as given in patent publication US20240150322A1, “CDK9 Inhibitors” (Biolexis Therapeutics, Inc., priority 2022, published 2024).

Assays:
NCI-H660 = assay: 2D CellTiter-Glo cell viability assay; assay type: cell-based; conditions: NCI-H660, 72 hours
Method: (§1) CellTiter-Glo® 2.0 Luminescent cell viability assay reagent was purchased from Promega and 22Rv1 and LASCPC-01 cell lines were purchased from ATCC. […] An equal volume of CellTiter-Glo 2D Reagent was added to the cell suspensions and luminescence was recorded after 30-minute incubation period. […] FIG. 2 illustrates cellular antiproliferative efficacy of a benchmark CDK9 inhibitor AD-4573 on six prostate cancer cell lines over various concentrations.
(§2) CellTiter-Glo® 2.0 Luminescent cell viability assay reagent was purchased from Promega and 22Rv1, LASCPC-01, C4-2, C4-2B and NCI-H660, DU-145, PC-3 and LNCap cell lines were obtained from ATCC and a clinical core facility at Huntsman Cancer Institute. […] The results of cell viability were obtained and IC50 values were calculated (see Table 5, below) showing sub-micromolar cell killing of these prostate cancer cells.

DU-145 = assay: 2D CellTiter-Glo cell viability assay; assay type: cell-based; conditions: Homo sapiens; DU-145, 72 hours
Method: as §1, §2

22Rv1 = assay: 2D CellTiter-Glo cell viability assay; assay type: cell-based; conditions: Homo sapiens; 22Rv1, 72 hours
Method: as §1, §2

LNCap = assay: 2D CellTiter-Glo cell viability assay; assay type: cell-based; conditions: Homo sapiens, 72 hours
Method: as §1, §2

LASCPC-01 [1] = assay: 2D CellTiter-Glo cell viability assay; assay type: cell-based; conditions: LASCPC-01, 72 hours
Method: as §1, §2

[2] = Pharmacokinetic study in rat; conditions: in vivo, po
PCTK1 = PCTK1 (Homo sapiens, UniProt Q00536); assay: scanMAX panel and Kd follow-up; assay type: binding
[3] = test system: pCDK9, pSer2, N-MYC, C-MYC and MCL-1; assay: Target modulation in prostate cancer patient samples; assay type: cell-based; conditions: newly diagnosed and resistant prostate cancer patient samples
C4-2B = assay: 2D CellTiter-Glo cell viability assay; assay type: cell-based
Method: as §2

[4] = test system: CDK9 downstream targets in 22Rv1 and LASCPC-01; assay: Western blot analysis of nuclear extract; assay type: cell-based
Method: Cytoplasmic and nuclear extracts from these cells were separated using NE-PER Nuclear and Cytoplasmic Extraction Kit (ThermoFisher). […] Relative protein expression of CDK9, N-Myc and other downstream signaling was quantified by GraphPad Prism 8 and ImageJ Software RT-PCR Gene.
Then cells were harvested with PBS and fixed with ice-cold 70% ethanol at −20° C. overnight. The cells were then washed with ice-cold PBS 2× and then re-suspended in DAPI staining buffer and incubated in the dark for 30 minutes. The cells were analyzed using BD Fortessa flow cytometer and cell cycle distribution was analyzed using FlowJo and GraphPad Prism 8 Software.

CDK9 = CDK9 (Homo sapiens, UniProt P50750); assay: DiscoveRx KINOMEscan (KdELECT, scanMAX panel); assay type: binding
Method: (§3) CDKs family kinases profiling assays were performed with DiscoveRx Matrix of Kds KINOMEscan (KdELECT) and Reaction Biology using miniaturized radioisotope-based assay platform (^33P). IC50 value estimated based on the best curve fitting available.

[5] = test system: RWPE-1 Normal Prostate Cells; assay: CellTiter-Glo 2D cell viability assay in normal prostate cells; assay type: cell-based; conditions: Homo sapiens; RWPE-1 normal prostate cells, 72 hours
Method: (§4) Multiplexing the LDH-Glo Cytotoxicity Assay and CellTiter-Glo 2D Cell Viability Assay. […] Change in toxicity was measured using the LDH-Glo Cytotoxicity Assay by combining 50 μL diluted samples with 50 μL LDH Detection Reagent and recording luminescence after 1 hour incubation. After samples were removed for LDH measurement, an equal volume of CellTiter Glo 2D Reagent was added to the remaining cell suspension and luminescence was recorded after 30-minute incubation period.

CDK9 + Cyclin T1 = CDK9 + Cyclin T1 (Homo sapiens, UniProt P50750); assay: cell-based
hERG channel = molecular target: T1, hERG channel (Homo sapiens, UniProt Q12809); assay: Predictor hERG Fluorescence Polarization Assay; assay type: binding
T1 construct: purchased
Source text: The Predictor™ hERG Fluorescence Polarization Assay Kit was used to perform hERG channel biochemical binding studies in the absence of radioligand. Assay performance was validated with a panel of established hERG channel blockers.

CDK5/P21 = molecular target: T2, CDK5/P21 (Homo sapiens, UniProt Q00535); assay: CDK family kinase profiling, radioisotope-based assay (33P); assay type: biochemical; conditions: read-out: 10-dose IC50
T2 construct: purchased Reaction Biology
Method: as §3

CDK9/cyclinT = molecular target: T3, CDK9/cyclinT (Homo sapiens, UniProt P50750); assay: as above; assay type: biochemical; conditions: cell-free, read-out: IC50 against CDK9
T3 construct: purchased Reaction Biology
Method: as §3

CDK7/cyclinH = molecular target: T4, CDK7/cyclinH (Homo sapiens, UniProt P50613); assay: as above; assay type: biochemical; conditions: read-out: 10-dose IC50
T4 construct: purchased Reaction Biology
Method: as §3

CDK4/cyclinD = CDK4/cyclinD (Homo sapiens, UniProt P11802); assay: as above; assay type: biochemical; conditions: read-out: 10-dose IC50
Method: as §3

[6] = test system: LASCPC-01 induced neuroendocrine prostate cancer (NEPC) CDX; assay: In vivo tumor efficacy study 2, LASCPC-01 NEPC CDX; parameters: species or system Nu/Nu (Balb/c background) mice
Method: Change in animal weight during a study is an additional indicator of tolerability. All animal weights are recorded. Tumor volumes were measured by digital caliper and volume was calculated using the formula [Width^2×Length]/2. All tumor volume measurements are recorded. […] Dose dependent tumor growth inhibition (TGI) was evident by observation.
50 and 80 mg/kg groups had mice drop from study starting on day 5.

[7] = test system: RWPE-1 Normal Prostate Cells; assay: LDH-Glo cytotoxicity assay in normal prostate cells; assay type: cell-based; conditions: Homo sapiens, 72 hours
Method: as §4

TAOK1 = TAOK1 (Homo sapiens, UniProt Q7L7X3); assay: scanMAX panel and Kd follow-up; assay type: binding
[8] = Pharmacokinetic study in mice; conditions: mouse, in vivo, po
Haspin = Haspin (Homo sapiens, UniProt Q8TF76); assay: scanMAX panel and Kd follow-up; assay type: binding
LASCPC-01 [9] = assay: Annexin V/7-AAD apoptosis assay; assay type: cell-based

Haspin, sequence (Q8TF76 whole entry): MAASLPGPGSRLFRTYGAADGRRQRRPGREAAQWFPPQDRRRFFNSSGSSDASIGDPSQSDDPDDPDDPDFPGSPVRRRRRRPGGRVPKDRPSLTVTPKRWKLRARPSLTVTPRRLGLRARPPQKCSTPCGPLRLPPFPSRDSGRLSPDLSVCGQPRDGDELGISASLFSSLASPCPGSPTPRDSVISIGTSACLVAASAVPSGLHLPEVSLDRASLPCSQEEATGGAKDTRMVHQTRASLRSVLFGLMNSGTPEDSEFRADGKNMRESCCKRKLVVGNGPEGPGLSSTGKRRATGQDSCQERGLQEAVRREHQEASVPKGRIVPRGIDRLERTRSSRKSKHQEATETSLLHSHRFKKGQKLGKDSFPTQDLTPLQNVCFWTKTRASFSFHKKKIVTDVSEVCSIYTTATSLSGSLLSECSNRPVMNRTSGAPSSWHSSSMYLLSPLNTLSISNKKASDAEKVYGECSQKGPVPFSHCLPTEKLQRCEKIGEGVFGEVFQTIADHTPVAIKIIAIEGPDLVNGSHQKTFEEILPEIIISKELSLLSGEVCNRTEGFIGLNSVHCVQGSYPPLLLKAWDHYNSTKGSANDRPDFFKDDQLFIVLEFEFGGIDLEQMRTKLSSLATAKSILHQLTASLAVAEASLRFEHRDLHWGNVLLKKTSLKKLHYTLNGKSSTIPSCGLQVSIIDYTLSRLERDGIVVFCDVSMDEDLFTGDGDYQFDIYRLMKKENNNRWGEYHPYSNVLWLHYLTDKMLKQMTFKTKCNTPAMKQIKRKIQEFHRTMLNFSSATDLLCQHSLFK
CDK9, sequence (P50750 whole entry): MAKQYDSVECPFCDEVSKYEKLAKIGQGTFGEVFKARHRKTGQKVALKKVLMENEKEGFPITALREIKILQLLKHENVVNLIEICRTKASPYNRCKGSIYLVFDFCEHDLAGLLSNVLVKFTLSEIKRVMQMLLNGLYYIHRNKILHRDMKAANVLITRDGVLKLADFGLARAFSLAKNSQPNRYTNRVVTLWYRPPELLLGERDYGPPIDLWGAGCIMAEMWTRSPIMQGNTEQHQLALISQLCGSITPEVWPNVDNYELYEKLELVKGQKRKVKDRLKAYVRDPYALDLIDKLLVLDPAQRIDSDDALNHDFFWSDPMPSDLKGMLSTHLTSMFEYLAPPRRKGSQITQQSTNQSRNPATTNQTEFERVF
PCTK1, sequence (Q00536 whole entry): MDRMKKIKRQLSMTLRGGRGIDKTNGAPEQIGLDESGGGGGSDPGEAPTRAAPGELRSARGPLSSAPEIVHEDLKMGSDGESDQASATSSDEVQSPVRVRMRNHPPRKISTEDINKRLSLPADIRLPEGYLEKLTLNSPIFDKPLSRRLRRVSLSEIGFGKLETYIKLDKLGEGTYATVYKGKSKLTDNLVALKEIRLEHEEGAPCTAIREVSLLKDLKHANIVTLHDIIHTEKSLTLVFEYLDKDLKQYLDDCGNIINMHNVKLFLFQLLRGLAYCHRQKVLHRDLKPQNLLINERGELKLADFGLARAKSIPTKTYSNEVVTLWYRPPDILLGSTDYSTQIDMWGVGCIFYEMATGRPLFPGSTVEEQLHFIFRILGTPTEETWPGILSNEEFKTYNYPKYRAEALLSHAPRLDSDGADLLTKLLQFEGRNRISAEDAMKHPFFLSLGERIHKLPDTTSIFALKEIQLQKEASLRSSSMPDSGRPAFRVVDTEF
T1 sequence (Q12809 whole entry): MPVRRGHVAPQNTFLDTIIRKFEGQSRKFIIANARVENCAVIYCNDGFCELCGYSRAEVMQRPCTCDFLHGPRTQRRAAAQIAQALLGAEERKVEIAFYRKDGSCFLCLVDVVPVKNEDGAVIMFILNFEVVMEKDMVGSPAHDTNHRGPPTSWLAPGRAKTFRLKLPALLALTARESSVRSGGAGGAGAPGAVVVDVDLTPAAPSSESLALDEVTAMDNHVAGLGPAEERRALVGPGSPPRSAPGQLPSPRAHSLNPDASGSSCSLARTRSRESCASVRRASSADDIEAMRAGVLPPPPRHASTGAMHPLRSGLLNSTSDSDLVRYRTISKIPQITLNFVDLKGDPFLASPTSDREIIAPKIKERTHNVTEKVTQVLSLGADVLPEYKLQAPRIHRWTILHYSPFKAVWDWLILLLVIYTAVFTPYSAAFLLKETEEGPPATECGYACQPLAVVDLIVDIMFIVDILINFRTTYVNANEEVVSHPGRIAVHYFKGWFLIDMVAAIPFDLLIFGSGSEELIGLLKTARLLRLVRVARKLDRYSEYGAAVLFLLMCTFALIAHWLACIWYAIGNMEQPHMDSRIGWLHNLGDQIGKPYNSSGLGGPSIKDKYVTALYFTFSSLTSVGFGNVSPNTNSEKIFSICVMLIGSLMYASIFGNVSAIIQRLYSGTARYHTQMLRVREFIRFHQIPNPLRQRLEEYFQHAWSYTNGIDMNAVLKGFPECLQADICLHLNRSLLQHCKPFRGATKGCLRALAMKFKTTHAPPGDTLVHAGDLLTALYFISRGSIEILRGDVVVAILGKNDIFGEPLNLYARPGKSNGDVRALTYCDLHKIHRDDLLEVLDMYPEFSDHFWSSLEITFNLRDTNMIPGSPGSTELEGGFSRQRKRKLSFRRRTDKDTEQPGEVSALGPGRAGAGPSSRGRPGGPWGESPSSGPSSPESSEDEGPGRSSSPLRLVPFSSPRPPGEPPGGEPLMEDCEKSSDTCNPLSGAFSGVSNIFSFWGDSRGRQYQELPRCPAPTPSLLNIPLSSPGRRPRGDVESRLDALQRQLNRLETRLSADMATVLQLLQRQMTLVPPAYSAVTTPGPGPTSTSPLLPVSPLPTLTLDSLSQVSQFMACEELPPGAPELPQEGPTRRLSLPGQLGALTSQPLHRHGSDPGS
TAOK1, sequence (Q7L7X3 whole entry): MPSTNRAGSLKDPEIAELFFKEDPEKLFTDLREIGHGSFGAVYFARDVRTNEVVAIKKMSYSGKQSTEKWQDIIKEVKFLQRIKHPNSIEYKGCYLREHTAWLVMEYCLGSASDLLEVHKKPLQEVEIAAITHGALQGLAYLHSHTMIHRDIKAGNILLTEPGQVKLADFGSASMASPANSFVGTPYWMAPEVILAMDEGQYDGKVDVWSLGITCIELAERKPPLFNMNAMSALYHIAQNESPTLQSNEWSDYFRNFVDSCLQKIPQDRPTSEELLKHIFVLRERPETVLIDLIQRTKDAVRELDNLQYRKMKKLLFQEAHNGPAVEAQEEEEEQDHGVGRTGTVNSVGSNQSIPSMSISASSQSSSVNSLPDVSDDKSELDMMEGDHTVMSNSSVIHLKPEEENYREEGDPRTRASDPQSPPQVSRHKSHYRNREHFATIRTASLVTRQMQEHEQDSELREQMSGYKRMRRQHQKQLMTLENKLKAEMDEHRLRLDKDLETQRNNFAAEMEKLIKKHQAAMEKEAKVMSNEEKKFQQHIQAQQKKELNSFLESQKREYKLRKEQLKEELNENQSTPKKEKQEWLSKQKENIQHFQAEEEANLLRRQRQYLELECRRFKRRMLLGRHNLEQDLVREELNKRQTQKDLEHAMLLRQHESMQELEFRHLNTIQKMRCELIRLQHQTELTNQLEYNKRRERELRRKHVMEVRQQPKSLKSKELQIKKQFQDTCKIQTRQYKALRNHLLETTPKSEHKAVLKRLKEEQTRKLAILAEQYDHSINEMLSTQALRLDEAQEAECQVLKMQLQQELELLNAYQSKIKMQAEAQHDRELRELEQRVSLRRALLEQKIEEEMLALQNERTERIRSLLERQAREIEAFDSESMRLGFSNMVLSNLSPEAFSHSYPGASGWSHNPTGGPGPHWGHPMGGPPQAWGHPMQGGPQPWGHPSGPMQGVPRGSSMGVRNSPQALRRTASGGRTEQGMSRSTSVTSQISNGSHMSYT
CDK4/cyclinD, sequence (P11802 whole entry): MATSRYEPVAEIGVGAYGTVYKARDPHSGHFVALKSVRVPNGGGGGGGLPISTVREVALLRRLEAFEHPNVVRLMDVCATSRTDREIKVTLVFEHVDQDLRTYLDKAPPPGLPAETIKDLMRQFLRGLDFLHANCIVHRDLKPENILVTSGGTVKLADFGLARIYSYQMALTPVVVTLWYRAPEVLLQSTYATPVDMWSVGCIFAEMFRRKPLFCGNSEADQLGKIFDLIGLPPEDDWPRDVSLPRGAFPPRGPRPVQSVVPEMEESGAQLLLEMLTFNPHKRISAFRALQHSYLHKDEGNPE
CDK4/cyclinD, sequence (P24385 whole entry partner): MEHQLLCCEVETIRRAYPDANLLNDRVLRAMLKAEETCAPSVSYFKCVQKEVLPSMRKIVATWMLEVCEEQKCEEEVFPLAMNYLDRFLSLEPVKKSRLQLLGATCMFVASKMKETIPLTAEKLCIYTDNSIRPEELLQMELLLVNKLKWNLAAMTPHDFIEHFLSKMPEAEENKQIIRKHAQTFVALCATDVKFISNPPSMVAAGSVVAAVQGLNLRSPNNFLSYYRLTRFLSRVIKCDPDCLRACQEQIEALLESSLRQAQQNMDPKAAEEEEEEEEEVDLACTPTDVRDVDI
T2 sequence (Q00535 whole entry): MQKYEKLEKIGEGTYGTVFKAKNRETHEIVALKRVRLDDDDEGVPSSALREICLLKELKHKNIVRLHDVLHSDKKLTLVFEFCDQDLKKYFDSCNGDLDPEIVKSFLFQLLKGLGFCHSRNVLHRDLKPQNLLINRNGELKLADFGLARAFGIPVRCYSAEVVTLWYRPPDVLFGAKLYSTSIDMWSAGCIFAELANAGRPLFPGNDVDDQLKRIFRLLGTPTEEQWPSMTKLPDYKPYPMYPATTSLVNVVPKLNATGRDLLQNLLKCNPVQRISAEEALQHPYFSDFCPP
T2 sequence (Q15078 99-307 partner limits assumed): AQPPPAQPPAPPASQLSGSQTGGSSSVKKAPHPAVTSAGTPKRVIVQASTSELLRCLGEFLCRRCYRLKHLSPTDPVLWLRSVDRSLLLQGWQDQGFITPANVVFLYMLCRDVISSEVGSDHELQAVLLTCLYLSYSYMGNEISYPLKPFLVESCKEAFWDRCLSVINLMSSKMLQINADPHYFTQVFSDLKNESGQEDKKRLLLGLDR

## CC(C)c1c2cc(-c3ccnc(N[C@H]4CC[C@H](N)C4)n3)ccc2nn1C [Compound I-2, (1S,3S)-[3-[4-(3-isopropyl-2-methylindazol-5-yl)pyrimidin-2-yl]aminocyclopentan-1-yl]-1,3-diamine]
NCI-H660
  IC50: 448 nM
DU-145
  IC50: 7720 nM
22Rv1
  IC50: 132 nM
LNCap
  IC50: 80.4 nM
LASCPC-01 [1]; 72 h
  IC50: 58 nM
LASCPC-01 [1]
  IC50: 58 nM
[2]
  bioavailability: 38%
PCTK1; PCTK1
  Kd: 8.2 nM
PCTK1; PCTK1, 1 μM, read-out: % of control activity
  remaining binding at 1 µM: 0 to 1%
[3]
  pCDK9, pSer2 and downstream N-MYC, C-MYC and MCL-1: reduced
C4-2B; 72 h
  IC50: 31 nM
C4-2B; 72 hours
  IC50: 31.9 nM
[4]
  CDK9 downstream targets (Western blot): inhibited the CDK9 downstream targets
CDK9; CDK9, 1 μM
  activity in scanMAX panel: 2.7%
CDK9; CDK9/cyclinT
  Kd: 4.2 nM
[5]
  IC50: 5260 nM
CDK9 + Cyclin T1
  IC50: 15.6 nM
hERG channel
  hERG activity: no hERG activity
hERG channel; fluorescence polarization
  IC50: 57800 nM
CDK5/P21
  IC50: 245 nM
CDK9/cyclinT
  IC50: < 5 nM
CDK7/cyclinH
  IC50: 119 nM
CDK4/cyclinD
  IC50: 22.8 nM
[6]; LASCPC-01, 50 mg/kg group
  tumor growth inhibition throughout the course of the study: > 80%
[6]; LASCPC-01, 50 mg/kg group, early in the study
  maximal tumor growth inhibition: ~100%
[6]; LASCPC-01, 80 mg/kg group, day 5
  maximal growth inhibition: 117%
[6]; LASCPC-01, 30, 50, 65, 80 mg/kg
  tumor growth: inhibit tumor growth in a dose dependent manner
[7]
  IC50: 6700 nM
TAOK1; TAOK1
  Kd: 19 nM
TAOK1; TAOK1, 1 μM, read-out: % of control activity
  remaining binding at 1 µM: 0 to 1%
[8]
  bioavailability: 28%
Haspin
  Kd: 2.8 nM
Haspin; 1 μM, read-out: % of control activity
  remaining binding at 1 µM: 0 to 1%
LASCPC-01 [9]; LASCPC-01
  apoptosis by Annexin V/7-AAD staining: increased apoptosis in a dose dependent manner
LASCPC-01 [9]; LASCPC-01, treated for 72 hours
  cell death: 69%
